Assay results as given in patent US9187471B2, “Pyrido [4,3-b] indole and pyrido [3,4-b] indole derivatives and methods of use” (Medivation Technologies, Inc., priority 2010, dated 2015).

Columns and labels:
[1] = molecular target: T1, human recombinant adrenergic α2B receptor (Homo sapiens, UniProt P18089); experiment: Adrenergic α2B radioligand binding ([3H]Rauwolscine); settings: read-out: Adrenergic (0.1 μM) a2B, percent inhibition of specific binding; compound at 0.1 μM; 2.5 nM [3H]Rauwolscine
T1 construct: expressed in transfected cells; host or cells: CHO-K1
T1 sequence (P18089 1-450): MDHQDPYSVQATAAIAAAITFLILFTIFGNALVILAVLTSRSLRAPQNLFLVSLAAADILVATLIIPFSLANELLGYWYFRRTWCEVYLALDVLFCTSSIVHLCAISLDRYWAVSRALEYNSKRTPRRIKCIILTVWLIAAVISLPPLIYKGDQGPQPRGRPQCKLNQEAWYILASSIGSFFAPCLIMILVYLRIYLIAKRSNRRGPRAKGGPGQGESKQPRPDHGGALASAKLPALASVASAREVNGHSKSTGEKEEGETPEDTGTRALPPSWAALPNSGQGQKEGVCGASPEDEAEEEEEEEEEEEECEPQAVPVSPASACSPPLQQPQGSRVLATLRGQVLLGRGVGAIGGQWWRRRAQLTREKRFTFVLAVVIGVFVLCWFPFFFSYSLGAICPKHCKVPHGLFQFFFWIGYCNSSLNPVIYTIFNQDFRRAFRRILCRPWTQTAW
Method: To evaluate in radioligand binding assays the activity of compounds of the invention, human recombinant adrenergic α2B receptor expressed in Chinese hamster ovary (CHO) K1 cells (Uhlen, S. et al, Eur. J. Pharmacol. 343(1):93, 1998) in a modified Tris-HCl buffer (50 mM Tris-HCl, pH 7.4, 12.5 mM MgCl2, 1 mM EDTA, 0.2% BSA) was used. Compounds of the invention were incubated with 2.5 nM [^3H]Rauwolscine for 60 min at 25° C. Non-specific binding was estimated in the presence of 10 μM Prazosin. Receptor proteins were filtered and washed, the filters were then counted to determine [^3H]Rauwolscine specifically bound. […] Compounds of the invention were tested in this biochemical assay and percent inhibition of specific binding was determined.

[2] = molecular target: T2, human recombinant adrenergic α1D receptor (Homo sapiens, UniProt P25100); experiment: Adrenergic α1D radioligand binding ([3H]Prazosin); settings: read-out: Adrenergic (0.1 μM) a1D, percent inhibition of specific binding; compound at 0.1 μM; 0.6 nM [3H]Prazosin
T2 construct: expressed in transfected cells; host or cells: HEK-293
T2 sequence (P25100 1-572): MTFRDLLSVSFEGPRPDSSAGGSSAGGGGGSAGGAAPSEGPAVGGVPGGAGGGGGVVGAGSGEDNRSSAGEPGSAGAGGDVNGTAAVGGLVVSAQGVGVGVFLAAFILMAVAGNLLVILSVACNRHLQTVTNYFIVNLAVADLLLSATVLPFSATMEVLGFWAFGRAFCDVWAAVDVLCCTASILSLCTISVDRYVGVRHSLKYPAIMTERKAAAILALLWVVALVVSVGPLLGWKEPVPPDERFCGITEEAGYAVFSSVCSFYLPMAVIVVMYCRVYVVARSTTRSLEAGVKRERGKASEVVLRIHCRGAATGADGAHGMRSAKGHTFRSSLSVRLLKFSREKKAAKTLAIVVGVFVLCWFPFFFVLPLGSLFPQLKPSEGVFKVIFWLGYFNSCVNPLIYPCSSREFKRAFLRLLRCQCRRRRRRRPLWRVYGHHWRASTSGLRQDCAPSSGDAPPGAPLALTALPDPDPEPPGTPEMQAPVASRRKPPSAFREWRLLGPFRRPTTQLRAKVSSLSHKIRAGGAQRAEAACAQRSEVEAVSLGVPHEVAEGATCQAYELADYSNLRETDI
Method: Compounds of invention were incubated with 0.6 nM [^3H]Prazosin for 60 min at 25° C. Non-specific binding was estimated in the presence of 10 μM phentolamine. Receptor proteins were filtered and washed, the filters were then counted to determine [^3H]Prazosin specifically bound. […] Compounds of the invention were tested in this biochemical assay and percent inhibition of specific binding was determined.

Row | Compound | inhibition at 0.1 µM [1] [%] | inhibition at 0.1 µM [2] [%]
1 | Cc1ccc2c(c1)c1c(n2-c2cscc2-c2ccc(C)s2)CCN(C)C1 [Compound No. 79] | 106 | 
2 | CNC(=O)c1cccc(-c2ccc(-n3c4c(c5cc(C)ccc53)CN(C)CC4)nc2)c1 [Compound No. 143, 3-(6-(2,8-dimethyl-3,4-dihydro-1H-pyrido[4,3-b]indol-5(2H)-yl)pyridin-3-yl)-N-methylbenzamide] | 77 | 72
